Laboratory results from patent US12595251B2, “Amidines and amidine analogs for the treatment of bacterial infections and potentiation antibiotics” (GEORGIA STATE UNIVERSITY RESEARCH FOUNDATION, INC., priority 2018, dated 2026).
Values after ≈ are worked out from the molar mass of the structure shown. Structures can show the parent of a compound that is named as a salt.

Test system: E. coli
Assay: Sensitization of E. coli to erythromycin (sensitization fold from IC90, OD600, 20 h)
Format: cell-based, Escherichia coli
Settings: erythromycin; compound at 10 μM
Method: E. coli bacteria were cultured in Miller's broth at 37° C. overnight prior to treatment. B. subtilis bacteria were cultured in nutrient broth at 37° C. overnight prior to treatment. […] Bacterial density was measured based on OD600.

Row | SMILES | SF (E. coli) at 10 μM [μM > 32 fold]
1 | CCCCc1cc(OCc2ccc(C(=N)N)cc2)cc(OCc2ccc(C(=N)N)cc2)c1 [drawing 749] | 10
2 | N=C(N)c1ccc(COc2cc(OCc3ccc(C(=N)N)cc3)cc(C(F)(F)F)c2)cc1 [drawing 750] | 10

Same assay, conditions: erythromycin; compound at 12.5 μM; NA=no activity

Row | SMILES | SF (E. coli) at 12.5 μM
3 | CC(C)(C)c1cc(COc2ccc(C(=N)N)cc2)cc(COc2ccc(C(=N)N)cc2)c1 [drawing 732] | 4-fold at 12.5 μM

Same assay, conditions: erythromycin; compound at 20 μM

Row | SMILES | SF (E. coli) at 20 μM
4 | COc1cc(OCc2ccc(C(=N)N)cc2)cc(OCc2ccc(C(=N)N)cc2)c1 | No effect at 20 μM
5 | CO/N=C(\N)c1ccc(OCc2cc(C)cc(COc3ccc(/C(N)=N\OC)cc3)c2)cc1 [drawing 748] | 4-fold at 20 μM

Same assay, conditions: erythromycin; compound at 25 μM; NA=no activity

Row | SMILES | SF (E. coli) at 25 μM
6 | Cc1cc(COc2ccc(C(=N)N)cc2F)cc(COc2ccc(C(=N)N)cc2F)c1 [drawing 747] | 64-fold at 25 μM

Same assay, conditions: general statement on amidine substitution or ring restraint

Row | SMILES | Ability to sensitize Gram-negative bacteria (while preserving ability to sensitize some Gram-positive bacteria)
7 | Cc1cc(COc2ccc(C(=N)NC(C)C)cc2)cc(COc2ccc(C(=N)NC(C)C)cc2)c1 [Compound C-3, 1,3-Bis {(4-isopropylamidino)-phenoxymethyl}-5-methylbenzene dihydrochloride] | greatly decrease, or even abolish

Same assay, conditions: sensitization fold = IC90 of erythromycin without/with compound; compound concentration not given; NA=no activity, T=toxic

Row | SMILES | SF (E. coli)
8 | N=C(N)c1ccc2nc(-c3ccc(OCC(F)(F)C(F)(F)COc4ccc(-c5nc6ccc(C(=N)N)cc6[nH]5)cc4)cc3)[nH]c2c1 [drawing 706] | <2
9 | N=C(N)c1ccc(OCc2ccc(-c3ccc(C(=N)N)cc3)cc2)cc1 [drawing 711] | <2
10 | N=C(N)c1ccc(OCc2cccc(COc3ccc(C(=N)N)cc3)c2)cc1 [drawing 712] | <2
11 | N=C(N)c1ccc(OCc2cccc(COc3ccc(C(=N)N)cc3F)c2F)c(F)c1 [drawing 713] | 6
12 | Cc1cc(-c2nc3cc(C(=N)N)ccc3n2C)sc1-c1ccc(OCCCCOc2ccc(C(=N)N)cc2)cc1 [drawing 715] | <2
13 | N=C(N)c1ccc(OCc2cccc(COc3ccc(C(=N)N)cc3)c2F)cc1 [drawing 718] | <2

Test system: M. smegmatis
Assay: Antibacterial activity against M. smegmatis (MIC, OD600, 48 h)
Format: cell-based, Mycobacterium smegmatis
Settings: Mycolicibacterium smegmatis, MIC = 90% growth inhibition, 7H9 media, NA=no activity

Row | SMILES | MIC [µM]
14 | N=C(N)c1ccc2nc(-c3ccc(OCC(F)(F)C(F)(F)COc4ccc(-c5nc6ccc(C(=N)N)cc6[nH]5)cc4)cc3)[nH]c2c1 [drawing 801] | 6 (≈ 3.78 µg/mL)
15 | N=C(N)c1ccc(OCc2ccc(-c3ccc(C(=N)N)cc3)cc2)cc1 [drawing 804] | 6 (≈ 2.07 µg/mL)
16 | N=C(N)c1ccc(OCc2cccc(COc3ccc(C(=N)N)cc3F)c2F)c(F)c1 [drawing 805] | 12 (≈ 5.14 µg/mL)
17 | N=C(N)c1ccc(OCc2cccc(COc3ccc(C(=N)N)cc3)c2F)cc1 [drawing 806] | 12 (≈ 4.71 µg/mL)
18 | Cc1cc(COc2ccc(C(=N)N)cc2)cc(COc2ccc(C(=N)N)cc2)c1 [drawing 809] | 12 (≈ 4.66 µg/mL)
19 | c1cc(COc2ccc(C3=NCCN3)cc2)cc(COc2ccc(C3=NCCN3)cc2)c1 [drawing 810] | 12 (≈ 5.12 µg/mL)
20 | Fc1c(COc2ccc(C3=NCCN3)cc2)cccc1COc1ccc(C2=NCCN2)cc1 [drawing 811] | 25 (≈ 11.1 µg/mL)
21 | COc1cc(C2=NCCN2)ccc1OCc1cccc(COc2ccc(C3=NCCN3)cc2OC)c1F [drawing 813] | 25 (≈ 12.6 µg/mL)
22 | N=C(N)c1ccc(OCc2ccc(COc3ccc(C(=N)N)cc3)cc2)cc1 [drawing 814] | 3 (≈ 1.12 µg/mL)
23 | Cc1cc(COc2ccc(C(=N)NC(C)C)cc2)cc(COc2ccc(C(=N)NC(C)C)cc2)c1 [drawing 815] | 3 (≈ 1.42 µg/mL)
24 | COc1cc(C(=N)N)ccc1OCc1cc(C)cc(COc2ccc(C(=N)N)cc2OC)c1 [drawing 816] | 25 (≈ 11.2 µg/mL)
25 | COc1cc(C(=N)N)ccc1OCc1cccc(COc2ccc(C(=N)N)cc2OC)c1F [drawing 817] | 6 (≈ 2.71 µg/mL)
26 | CC(C)(C)c1cc(COc2ccc(C(=N)N)cc2)cc(COc2ccc(C(=N)N)cc2)c1 [drawing 818] | 6 (≈ 2.58 µg/mL)
27 | Cn1c(-c2ccc(-c3ccc(C(=N)N)cc3)s2)nc2cc(-c3ccc(C(=N)N)cc3)ccc21 [drawing 819] | 6 (≈ 2.7 µg/mL)
28 | N=C(N)c1ccc(OCc2cccc(COc3ccc(C(=N)N)cc3)c2)cc1 [drawing 821] | 12 (≈ 4.49 µg/mL)
29 | Cc1cc(-c2nc3cc(C(=N)N)ccc3n2C)sc1-c1ccc(OCCCCOc2ccc(C(=N)N)cc2)cc1 [drawing 822] | 3 to 6 (≈ 1.66 to 3.32 µg/mL)
30 | N=C(N)c1ccc(OCc2cccc(COc3ccc(C(=N)N)cc3)n2)cc1 [drawing 823] | 12 (≈ 4.51 µg/mL)
31 | N=C(N)c1ccc(OCCCCCCOc2ccc(C(=N)N)cc2)cc1 [drawing 825] | 6 (≈ 2.13 µg/mL)
32 | Cc1cc(COc2ccc(C3=NCCN3)cc2)cc(COc2ccc(C3=NCCN3)cc2)c1 [drawing 826] | 25 (≈ 11 µg/mL)
33 | N=C(N)c1ccc(OCc2cc(COc3ccc(C(=N)N)cc3)cc(COc3ccc(C(=N)N)cc3)c2)cc1 [drawing 828] | 3 to 6 (≈ 1.57 to 3.14 µg/mL)
34 | Cc1cc(CCc2ccc(C(=N)N)cc2)cc(CCc2ccc(C(=N)N)cc2)c1 [drawing 829] | 6 to 12 (≈ 2.31 to 4.61 µg/mL)
35 | CC(C)NC(=N)c1ccc(OCc2cccc(COc3ccc(C(=N)NC(C)C)cc3)c2F)cc1 [drawing 830] | 3 (≈ 1.43 µg/mL)
36 | CC(C)NC(=N)c1ccc(OCc2cccc(COc3ccc(C(=N)NC(C)C)cc3F)c2F)c(F)c1 [drawing 831] | 12 (≈ 6.15 µg/mL)

Test system: wild-type E. coli
Assay: Sensitization of wild-type E. coli toward antibiotics (MIC of antibiotic with/without sensitizer)
Format: cell-based, Escherichia coli
Settings: not given
Method: Bacteria were cultured with the antibiotic at various concentrations in the presence or absence of bacterial sensitizer for 24 hours at 37° C. Bacterial growth density was determined by measuring OD600 (absorbance measured at a wavelength of 600 nm). […]
The formula for calculating FIC is shown below: […]

Row | SMILES | Minimal concentration achieving 10-fold sensitization of E. coli toward erythromycin [μg/ml]
37 | N=C(N)c1ccc(OCCCCCOc2ccc(C(=N)N)cc2)cc1 [Pentamidine, pentamidine] | 40

Test system: NDM-1 over-expressing E. coli
Assay: microbe, parasite or virus in culture
Format: cell-based, Escherichia coli
Settings: Escherichia coli, antibiotic alone, read-out: MIC of AB only

Row | SMILES | MIC [µg/mL]
38 | CC[C@H]1OC(=O)[C@H](C)[C@@H](O[C@H]2C[C@@](C)(OC)[C@@H](O)[C@H](C)O2)[C@H](C)[C@@H](O[C@@H]2O[C@H](C)C[C@H](N(C)C)[C@H]2O)[C@](C)(OC)C[C@@H](C)C(=O)[C@H](C)[C@@H](O)[C@]1(C)O [Clarithromycin, clarithromycin] | 24

Same assay, conditions: antibiotic plus Compound C 5 μg/ml

Row | SMILES | FIC | MIC of AB with Compound C (5 μg/ml) [µg/mL]
39 | CC[C@H]1OC(=O)[C@H](C)[C@@H](O[C@H]2C[C@@](C)(OC)[C@@H](O)[C@H](C)O2)[C@H](C)[C@@H](O[C@@H]2O[C@H](C)C[C@H](N(C)C)[C@H]2O)[C@](C)(OC)C[C@@H](C)C(=O)[C@H](C)[C@@H](O)[C@]1(C)O [Clarithromycin, clarithromycin] | 0.12 | 0.4

Test system: H9c2 cells
Assay: Cytotoxicity in H9c2 cells (CCK-8, 24 h)
Format: cell-based
Settings: not given
Method: H9c2 (ATCC®R-1446™) cells Were used in the studies. The H9c2 cells were maintained in DMEM (Dulbeccoa's Modified Eagle's Medium) supplemented with 10% fetal bovine serum (Mid Sci; S01520HI) and 1% penicillin-streptomycin (Sigma-Aldrich; P4333) at 37° C. with 5% CO2. The H9c2 cells were seeded in 96-well plate one day before the experiment. Different concentrations of di-amidine compounds were added into the H9c2 cells. The cells were then incubated with the compounds for 24 h at 37° C. with 5% CO2. The cell viability was tested by the CCK-8. Specifically, after 24 h incubation, 10 μL CCK-8 was added to each well. After 3 h incubation at 37° C., the absorbance at 450 nm was recorded by a plate reader. The cytoxicity in HEK293 and 3T3 cells was measured using the same procedure. Data is shown in Table 5 (NT=not toxic; --=not tested).

Row | SMILES | H9c2 CC^50 [µM]
40 | N=C(N)c1ccc(OCc2cccc(COc3ccc(C(N)=O)cc3)n2)cc1 | 50
41 | Fc1cc(C2=NCCN2)ccc1OCc1cccc(COc2ccc(C3=NCCN3)cc2F)c1F | 50
42 | Cc1cc(COc2ccc(NC(=N)N)cc2)cc(COc2ccc(NC(=N)N)cc2)c1 | 100
43 | N=C(N)c1ccc2nc(-c3ccc(OCC(F)(F)C(F)(F)COc4ccc(-c5nc6ccc(C(=N)N)cc6[nH]5)cc4)cc3)[nH]c2c1 [drawing 847] | 50
44 | Cn1c(-c2ccc(-c3ccc(C(=N)N)cc3)s2)nc2cc(-c3ccc(C(=N)N)cc3)ccc21 [drawing 848] | 50
45 | N=C(N)c1ccc2[nH]c(-c3ccc(-c4ccc(-c5ccc(-c6ccc(-c7nc8cc(C(=N)N)ccc8[nH]7)cc6)s5)s4)cc3)nc2c1 [drawing 849] | 50
46 | Cn1c(CCCCc2nc3ccc(C(=N)N)cc3n2C)nc2ccc(C(=N)N)cc21 [drawing 850] | 50
47 | N=C(N)c1ccc(Oc2ccc(C(=N)N)cc2)cc1 [drawing 851] | 50
48 | N=C(N)c1ccc(OCc2ccc(-c3ccc(C(=N)N)cc3)cc2)cc1 [drawing 852] | 50
49 | N=C(N)c1ccc(OCc2cccc(COc3ccc(C(=N)N)cc3)c2)cc1 [drawing 853] | 50
50 | N=C(N)c1ccc(OCCCCCCCCOc2ccc(C(=N)N)cc2)cc1 [drawing 855] | <5
51 | Cc1cc(-c2nc3cc(C(=N)N)ccc3n2C)sc1-c1ccc(OCCCCOc2ccc(C(=N)N)cc2)cc1 [drawing 856] | 50
52 | N=C(N)c1ccc(OCc2cccc(COc3ccc(C(=N)N)cc3)n2)cc1 [drawing 857] | 50
53 | N=C(N)c1ccc(OCOc2ccc(C(=N)N)cc2)cc1 [drawing 858] | 50
54 | N=C(N)c1ccc(OCc2cccc(COc3ccc(C(=N)N)cc3)c2F)cc1 [drawing 859] | 50
55 | Cn1c(CCc2nc3cc(C(=N)N)ccc3n2C)nc2cc(C(=N)N)ccc21 [drawing 860] | 50
56 | N=C(N)c1ccc(OCCCCCCOc2ccc(C(=N)N)cc2)cc1 [drawing 862] | <5
57 | c1cc(COc2ccc(C3=NCCN3)cc2)cc(COc2ccc(C3=NCCN3)cc2)c1 [drawing 865] | <12
58 | Fc1c(COc2ccc(C3=NCCN3)cc2)cccc1COc1ccc(C2=NCCN2)cc1 [drawing 866] | 25
59 | COc1cc(C2=NCCN2)ccc1OCc1cccc(COc2ccc(C3=NCCN3)cc2OC)c1F [drawing 868] | 50
60 | COc1cc(C(=N)N)ccc1OCc1cccc(COc2ccc(C(=N)N)cc2OC)c1F [drawing 872] | 12.5
61 | CC(C)(C)c1cc(COc2ccc(C(=N)N)cc2)cc(COc2ccc(C(=N)N)cc2)c1 [drawing 873] | 25
62 | CC(C)(C)c1cc(COc2ccc(C(=N)N)cc2F)cc(COc2ccc(C(=N)N)cc2F)c1 [drawing 883] | 25
63 | CCCCc1cc(OCc2ccc(C(=N)N)cc2)cc(OCc2ccc(C(=N)N)cc2)c1 [drawing 887] | 25
64 | N=C(N)c1ccc(COc2cc(OCc3ccc(C(=N)N)cc3)cc(C(F)(F)F)c2)cc1 [drawing 888] | 50
